Legend:
[1] = test system: HCV 1a genotype replicon (strain H77, Huh-1a7 cell line); experiment: HCV replicon assay, qRT-PCR, genotype 1a (Huh-1a7 cells); format: cell-based; details: Hepatitis C virus; Genotype-1a replicon, HCV RNA by qRT-PCR normalized to GAPDH RNA
Excerpt: (§1) HCV replicon cell lines (kindly provided by R. Bartenschlager) isolated from colonies as described by Lohman et al. (Lohman et al. (1999) Science 285: 110-113, expressly incorporated by reference in its entirety) and used for all experiments. One of the HCV replicon cell lines (strain Con1, genotype 1b) has the nucleic acid sequence set forth in EMBL Accession No.: AJ242651, the coding sequence of which is from nucleotides 1801 to 8406. Another replicon cell line (strain H77, genotype 1a) was constructed as described by Yi et. al. (Yi et. al. (2004) Journal of Virology 78(15):7904-15). The coding sequences of the published HCV replicons were synthesized and subsequently assembled in plasmids using standard molecular biology techniques.
(§2) One replicon cell line (“SGR 11-7”) stably expresses HCV replicon RNA, genotype 1b, which consists of (i) the HCV 5′UTR fused to the first 12 amino acids of the capsid protein, (ii) the neomycin phosphotransferase gene (neo), (iii) the IRES from encephalomyocarditis virus (EMCV) and (iv) HCV […] to NS5B genes and the HCV 3′UTR. Another replicon cell line (“Huh-1a7”) described by Yi et. al. (Yi et. al. (2004) Journal of Virology 78(15):7904-15, expressly incorporated by reference in its entirety) stably expresses HCV replicon RNA, genotype 1a, which consists of (i) the HCV 5′UTR fused to the first 12 amino acids of the capsid protein, (ii) the HIV tat protein, (iii) the neomycin phosphotransferase gene (neo), (iv) the IRES from encephalomyocarditis virus (EMCV) and (vi) HCV NS3 to NS5B genes that harbor cell culture adaptive mutations (Q1067R, K1691R, S2204I) and the HCV 3′UTR.
(§3) These cell lines are maintained at 37° C., 5% CO2, 100% relative humidity in DMEM (Cat#11965-084, Invitrogen), with 10% fetal calf serum (“FCS”, Invitrogen), 1% non-essential amino acids (Invitrogen), 1% of Glutamax (Invitrogen), 1% of 10× penicillin/streptomycin (Cat#15140-122, Invitrogen) and Geneticin (Cat#10131-027, Invitrogen) at 0.75 mg/ml or 0.25 mg/ml for 11-7 and Huh-1a7 cells, respectively.
(§4) EC50 values of single agent compounds were determined by HCV RNA detection using quantitative RT-PCR, according to the manufacturer's instructions, with a TAQMAN® One-Step RT-PCR Master Mix Reagents Kit (Cat#AB 4309169, Applied Biosystems) on an ABI Model 7500 thermocycler. EC50 values of combinations are similarly determined by HCV RNA detection using quantitative RT-PCR. The TAQMAN primers to use for detecting and quantifying HCV RNA obtained from Integrated DNA Technologies. HCV RNA is normalized to GAPDH RNA levels in drug-treated cells, which is detected and quantified using the Human GAPDH Endogenous Control Mix (Applied Biosystems, AB 4310884E). Total cellular RNA is purified from 96-well plates using the RNAqueous 96 kit (Ambion, Cat#AM1812). Chemical agent cytotoxicity is evaluated using an MTS assay according to the manufacturer's directions (Promega).
(§5) The compounds of the present invention can be effective against the HCV 1a and 1b genotypes. It should also be understood that the compounds of the present invention can inhibit multiple genotypes of HCV. In one embodiment, compounds of the present invention are active against the 1a, 1b, 2a, 2b, 3a, 4a, and 5a genotypes. […] EC50 ranges against HCV 1a or 1b are as follows: A>1 μM; B 0.1-1 μM; C<0.1 μM.

[2] = test system: HCV 1b genotype replicon (strain Con1, SGR 11-7 cell line); experiment: HCV replicon assay, qRT-PCR, genotype 1b (SGR 11-7 cells); format: cell-based; details: Hepatitis C virus; Genotype-1b replicon, HCV RNA by qRT-PCR normalized to GAPDH RNA
Excerpt: as §1, §2, §3, §4, §5

SMILES: C[C@@H]1NP(=O)(Oc2cccc3ccccc23)OCC2OC(n3cnc4c(nc(N)nc43)OCCCCCCCOC1=O)[C@](C)(O)[C@@H]2O (stereo partly shown) [Example 3]
- EC50 [1]: < 100 nM
- EC50 [2]: 100 to 1000 nM

SMILES: C[C@@H]1NP(=O)(Oc2cccc3ccccc23)OCC2OC(n3cnc4c(nc(N)nc43)OCCC=CCCCOC1=O)[C@](C)(O)[C@@H]2O (stereo partly shown) [Example 10]
- EC50 [1]: 100 to 1000 nM
- EC50 [2]: 100 to 1000 nM

SMILES: C[C@@H]1NP(=O)(Oc2cccc3ccccc23)OCC2OC(n3cnc4c(nc(N)nc43)OCCCCC(F)(F)COC1=O)[C@](C)(O)[C@@H]2O (stereo partly shown) [Example 2]
- EC50 [1]: 100 to 1000 nM
- EC50 [2]: 100 to 1000 nM

SMILES: C[C@@H]1NP(=O)(Oc2cccc3ccccc23)OCC2OC(n3cnc4c(nc(N)nc43)OCCCCCCOC1=O)[C@](C)(O)[C@@H]2O (stereo partly shown) [Example 7]
- EC50 [1]: < 100 nM
- EC50 [2]: 100 to 1000 nM

SMILES: C[C@@H]1NP(=O)(Oc2ccccc2)OCC2OC(n3cnc4c(nc(N)nc43)OCCCCCCCOC1=O)[C@](C)(O)[C@@H]2O (stereo partly shown) [Example 8]
- EC50 [1]: 100 to 1000 nM
- EC50 [2]: 100 to 1000 nM

SMILES: C[C@@H]1NP(=O)(Oc2cccc3ccccc23)OCC2OC(n3cnc4c(nc(N)nc43)OCCCCCOCCCOC1=O)[C@](C)(O)[C@@H]2O (stereo partly shown) [Example 5]
- EC50 [1]: 100 to 1000 nM
- EC50 [2]: > 1000 nM

SMILES: CC(C)C[C@@H]1NP(=O)(Oc2cccc3ccccc23)OCC2OC(n3cnc4c(nc(N)nc43)OCCCCCCCOC1=O)[C@](C)(O)[C@@H]2O (stereo partly shown) [Example 4]
- EC50 [1]: 100 to 1000 nM
- EC50 [2]: > 1000 nM

SMILES: C[C@@H]1NP(=O)(Oc2ccccc2)OCC2OC(n3cnc4c(nc(N)nc43)OCCCCCCCCOC1=O)[C@](C)(O)[C@@H]2O (stereo partly shown) [Example 9]
- EC50 [1]: 100 to 1000 nM
- EC50 [2]: 100 to 1000 nM
